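1) Cells in 96-well plates. 2) Compound, 48 h, 5 concentrations. 3) Linear interpolation between surrounding doses. 4) Unreached endpoint = highest concentration. TGI is the concentration that stops growth completely.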
Assays:
Experiment in all cases: NCI-60 cell line screen, 48 h
786-0 renal = tested on: 786-0 renal
A498 renal = tested on: A498 renal
A549 NSCLC = tested on: A549 NSCLC
ACHN renal = tested on: ACHN renal
BT-549 breast = tested on: BT-549 breast
CAKI-1 renal = tested on: CAKI-1 renal
CCRF-CEM leukemia = tested on: CCRF-CEM leukemia
COLO 205 colon = tested on: COLO 205 colon
DU-145 prostate = tested on: DU-145 prostate
EKVX NSCLC = tested on: EKVX NSCLC
HCC-2998 colon = tested on: HCC-2998 colon
HCT-116 colon = tested on: HCT-116 colon
HCT-15 colon = tested on: HCT-15 colon
HL-60(TB) leukemia = tested on: HL-60(TB) leukemia
HOP-62 NSCLC = tested on: HOP-62 NSCLC
HOP-92 NSCLC = tested on: HOP-92 NSCLC
HS 578T breast = tested on: HS 578T breast
HT29 colon = tested on: HT29 colon
IGROV1 ovarian = tested on: IGROV1 ovarian
K-562 leukemia = tested on: K-562 leukemia
KM12 colon = tested on: KM12 colon
LOX IMVI melanoma = tested on: LOX IMVI melanoma
M14 melanoma = tested on: M14 melanoma
MALME-3M melanoma = tested on: MALME-3M melanoma
MCF7 breast = tested on: MCF7 breast
MDA-MB-231 breast = tested on: MDA-MB-231 breast
MDA-MB-435 = tested on: MDA-MB-435
MDA-N = tested on: MDA-N
MOLT-4 leukemia = tested on: MOLT-4 leukemia
NCI-H226 lung = tested on: NCI-H226 lung
NCI-H23 lung = tested on: NCI-H23 lung
NCI-H460 lung = tested on: NCI-H460 lung
NCI-H522 lung = tested on: NCI-H522 lung
NCI/ADR-RES ovarian = tested on: NCI/ADR-RES ovarian
OVCAR-3 ovarian = tested on: OVCAR-3 ovarian
OVCAR-4 ovarian = tested on: OVCAR-4 ovarian
OVCAR-5 ovarian = tested on: OVCAR-5 ovarian
OVCAR-8 ovarian = tested on: OVCAR-8 ovarian
PC-3 prostate = tested on: PC-3 prostate
RPMI-8226 leukemia = tested on: RPMI-8226 leukemia
SF-295 CNS = tested on: SF-295 CNS
SF-539 CNS = tested on: SF-539 CNS
SK-MEL-2 melanoma = tested on: SK-MEL-2 melanoma
SK-MEL-28 melanoma = tested on: SK-MEL-28 melanoma
SK-MEL-5 melanoma = tested on: SK-MEL-5 melanoma
SK-OV-3 ovarian = tested on: SK-OV-3 ovarian
SN12C renal = tested on: SN12C renal
SNB-19 CNS = tested on: SNB-19 CNS
SNB-75 CNS = tested on: SNB-75 CNS
SR leukemia = tested on: SR leukemia
SW-620 colon = tested on: SW-620 colon
T-47D breast = tested on: T-47D breast
TK-10 renal = tested on: TK-10 renal
U251 CNS = tested on: U251 CNS
UACC-257 melanoma = tested on: UACC-257 melanoma
UACC-62 melanoma = tested on: UACC-62 melanoma
UO-31 renal = tested on: UO-31 renal
RXF 393 renal = tested on: RXF 393 renal
SF-268 CNS = tested on: SF-268 CNS

Measured: TGI

COc1ccc(S(=O)(=O)NC(CCC(=O)NC(N)=O)C(=O)NC(N)=O)cc1 (configuration not stated)
not listed: RXF 393 renal | SF-268 CNS
> 100 µM: all other assays above

CCOC(=O)N1CCNCCN(C(=O)OCC)CCNCC1
not listed: KM12 colon | MALME-3M melanoma | SK-OV-3 ovarian | SNB-75 CNS
> 100 µM: all other assays above

Reference: PubChem BioAssay (NCI)
